Data published in PubChem BioAssay (NCI).
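The compound was tested at five concentrations on cells cultured in 96-well plates, with a 48-hour exposure period. At the GI50, growth is halved. At the TGI there is no net growth.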

Key:
Assay in all cases: NCI anticancer screen, dose series, 48 h
[1] = tested on: 786-0 renal
[2] = tested on: A498 renal
[3] = tested on: A549 NSCLC
[4] = tested on: ACHN renal
[5] = tested on: BT-549 breast
[6] = tested on: CAKI-1 renal
[7] = tested on: COLO 205 colon
[8] = tested on: DU-145 prostate
[9] = tested on: EKVX NSCLC
[10] = tested on: HCC-2998 colon
[11] = tested on: HCT-116 colon
[12] = tested on: HCT-15 colon
[13] = tested on: HOP-62 NSCLC
[14] = tested on: HS 578T breast
[15] = tested on: HT29 colon
[16] = tested on: IGROV1 ovarian
[17] = tested on: K-562 leukemia
[18] = tested on: KM12 colon
[19] = tested on: LOX IMVI melanoma
[20] = tested on: M14 melanoma
[21] = tested on: MALME-3M melanoma
[22] = tested on: MCF7 breast
[23] = tested on: MDA-MB-231 breast
[24] = tested on: MDA-MB-435
[25] = tested on: MOLT-4 leukemia
[26] = tested on: NCI-H226 lung
[27] = tested on: NCI-H23 lung
[28] = tested on: NCI-H460 lung
[29] = tested on: NCI-H522 lung
[30] = tested on: NCI/ADR-RES ovarian
[31] = tested on: OVCAR-3 ovarian
[32] = tested on: OVCAR-4 ovarian
[33] = tested on: OVCAR-5 ovarian
[34] = tested on: OVCAR-8 ovarian
[35] = tested on: PC-3 prostate
[36] = tested on: RPMI-8226 leukemia
[37] = tested on: RXF 393 renal
[38] = tested on: SF-268 CNS
[39] = tested on: SF-295 CNS
[40] = tested on: SF-539 CNS
[41] = tested on: SK-MEL-2 melanoma
[42] = tested on: SK-MEL-28 melanoma
[43] = tested on: SK-MEL-5 melanoma
[44] = tested on: SK-OV-3 ovarian
[45] = tested on: SN12C renal
[46] = tested on: SNB-19 CNS
[47] = tested on: SNB-75 CNS
[48] = tested on: SW-620 colon
[49] = tested on: T-47D breast
[50] = tested on: TK-10 renal
[51] = tested on: U251 CNS
[52] = tested on: UACC-257 melanoma
[53] = tested on: UACC-62 melanoma
[54] = tested on: UO-31 renal

COC(=O)C1CC2(c3ccc(C)cc3)C(c3ccc(C)cc3)=C(c3ccc(C)cc3)C1(c1ccc(C)cc1)S2=O (stereo not drawn)
GI50 [1]: 70.8 µM
TGI [1]: > 100 µM
GI50 [2]: 4.88 µM
TGI [2]: 50.5 µM
GI50 [3]: > 100 µM
TGI [3]: > 100 µM
GI50 [4]: > 100 µM
TGI [4]: > 100 µM
GI50 [5]: > 100 µM
TGI [5]: > 100 µM
GI50 [6]: > 100 µM
TGI [6]: > 100 µM
GI50 [7]: > 100 µM
TGI [7]: > 100 µM
GI50 [8]: > 100 µM
TGI [8]: > 100 µM
GI50 [9]: > 100 µM
TGI [9]: > 100 µM
GI50 [10]: > 100 µM
TGI [10]: > 100 µM
GI50 [11]: 73.2 µM
TGI [11]: > 100 µM
GI50 [12]: > 100 µM
TGI [12]: > 100 µM
GI50 [13]: 34.8 µM
TGI [13]: > 100 µM
GI50 [14]: 48.6 µM
TGI [14]: > 100 µM
GI50 [15]: 41.4 µM
TGI [15]: > 100 µM
GI50 [16]: 98.4 µM
TGI [16]: > 100 µM
GI50 [17]: > 100 µM
TGI [17]: > 100 µM
GI50 [18]: > 100 µM
TGI [18]: > 100 µM
GI50 [19]: > 100 µM
TGI [19]: > 100 µM
GI50 [20]: > 100 µM
TGI [20]: > 100 µM
GI50 [21]: > 100 µM
TGI [21]: > 100 µM
GI50 [22]: > 100 µM
TGI [22]: > 100 µM
GI50 [23]: > 100 µM
TGI [23]: > 100 µM
GI50 [24]: > 100 µM
TGI [24]: > 100 µM
GI50 [25]: > 100 µM
TGI [25]: > 100 µM
GI50 [26]: > 100 µM
TGI [26]: > 100 µM
GI50 [27]: > 100 µM
TGI [27]: > 100 µM
GI50 [28]: > 100 µM
TGI [28]: > 100 µM
GI50 [29]: 96.3 µM
TGI [29]: > 100 µM
GI50 [30]: 85.5 µM
TGI [30]: > 100 µM
GI50 [31]: > 100 µM
TGI [31]: > 100 µM
GI50 [32]: 22.5 µM
TGI [32]: 81.2 µM
GI50 [33]: > 100 µM
TGI [33]: > 100 µM
GI50 [34]: 37.9 µM
TGI [34]: > 100 µM
GI50 [35]: > 100 µM
TGI [35]: > 100 µM
GI50 [36]: > 100 µM
TGI [36]: > 100 µM
GI50 [37]: 90.2 µM
TGI [37]: > 100 µM
GI50 [38]: > 100 µM
TGI [38]: > 100 µM
GI50 [39]: 57.6 µM
TGI [39]: > 100 µM
GI50 [40]: > 100 µM
TGI [40]: > 100 µM
GI50 [41]: > 100 µM
TGI [41]: > 100 µM
GI50 [42]: > 100 µM
TGI [42]: > 100 µM
GI50 [43]: > 100 µM
TGI [43]: > 100 µM
GI50 [44]: > 100 µM
TGI [44]: > 100 µM
GI50 [45]: > 100 µM
TGI [45]: > 100 µM
GI50 [46]: 36.2 µM
TGI [46]: > 100 µM
GI50 [47]: 10.6 µM
TGI [47]: 29.6 µM
GI50 [48]: > 100 µM
TGI [48]: > 100 µM
GI50 [49]: 60.4 µM
TGI [49]: > 100 µM
GI50 [50]: > 100 µM
TGI [50]: > 100 µM
GI50 [51]: 65.1 µM
TGI [51]: > 100 µM
GI50 [52]: > 100 µM
TGI [52]: > 100 µM
GI50 [53]: > 100 µM
TGI [53]: > 100 µM
GI50 [54]: > 100 µM
TGI [54]: > 100 µM
